# Patent US9358305B2, “Targeted carriers for drug delivery across the gastrointestinal epithelium” (University of Maryland, College Park, priority 2009, dated 2016)
# Ends that are not written are not given here.
# B1: free ASM: recombinant acid sphingomyelinase, an enzyme that binds to mannose-6-phosphate receptor (protein, UniProt P17405 47-631, looked up)
# Sphingomyelin …: LALSDSRVLWAPAEAHPLSPQGHPARLHRIVPRLRDVFGWGNLTCPICKGLFTAINLGLKKEPNVARVGSVAIKLCNLLKIAPPAVCQSIVHLFEDDMVEVWRRSVLSPSEACGLLLGSTCGHWDIFSSWNISLPTVPKPPPKPPSPPAPGAPVSRILFLTDLHWDHDYLEGTDPDCADPLCCRRGSGLPPASRPGAGYWGEYSKCDLPLRTLESLLSGLGPAGPFDMVYWTGDIPAHDVWHQTRQDQLRALTTVTALVRKFLGPVPVYPAVGNHESTPVNSFPPPFIEGNHSSRWLYEAMAKAWEPWLPAEALRTLRIGGFYALSPYPGLRLISLNMNFCSRENFWLLINSTDPAGQLQWLVGELQAAEDRGDKVHIIGHIPPGHCLKSWSWNYYRIVARYENTLAAQFFGHTHVDEFEVFYDEETLSRPLAVAFLAPSATTYIGLNPGYRVYQIDGNYSGSSHVVLDHETYILNLTQANIPGAIPHWQLLYRARETYGLPNTLPTAWHNLVYRMRGDMQLFQTFWFLYHKGHPPSEPCGTPCRLATLCAQLSARADSPALCRHLMPDGSLPEAQSLWPRPLFC
# Legend:
# HUVEC = experiment: Lysosomal transport of peptide-coated carriers in HUVEC; format: cell-based, human; conditions: for Binding, internalization and lysosomal transport of carriers: 37° C., co-localization with dextran-labeled lysosomes, carriers coated with the peptide
# Protocol: (§1) (A) The peptide γ3 was absorbed on the surface of 100 nm FITC-labeled polystyrene carriers and the resulting products were incubated for 15 min on nitrocellulose-immobilized albumin vs human or mouse ICAM-1 chimeras containing ICAM-1-Ig domains 1 and 2 fused to human Fc sequence. The membranes were washed and analyzed by fluorescence microscopy to quantify the number of carriers bound per area. Data are expressed relative to non-specific binding of γ3 carriers to albumin controls (dotted line). A comparison to binding of anti-ICAM carriers is provided (dashed line). (B) Binding of FITC-labeled polystyrene carriers coated by absorption with the peptide γ3 and recombinant acid sphingomyelinase (ASM, a therapeutic enzyme) to activated HUVEC (bars) vs ICAM-1-negative 293 cells (dotted line) was quantified by fluorescence microscopy after 1 h incubation at 37° C., in the absence or presence of excess γ3, anti-ICAM, γ3 scramble peptide, or mannose 6 phosphate (M6P). Data is shown relative to HUVEC binding of γ3/ASM carriers (134±11 particles/cell). (C) HUVEC lysosomes were labeled for 2 h with Texas-red dextran at 37° C. Cells were then incubated for 30 min at 37° C. with FITC-labeled γ3/ASM carriers, non-bound carriers were washed, and incubation was continued up to 1, 2, or 3 h. Co-localization of FITC carriers with Texas-red dextran-lysosomes was quantified by fluorescence microscopy. (D) Comparison of lysosomal transport of 100 nm FITC-labeled polystyrene carriers coated with either ICAM-1-targeting peptide γ3 vs its derivatives 2γ3 and 3γ3. (E) Activated HUVEC were incubated for 30 min at 37° C. in the presence of FITC-labeled 2γ3 polystyrene carriers after 15 min pre-treatment with 3 mM amiloride to block ICAM-1-mediated endocytosis, or 0.1 μM PMA to activate PKC and promote ICAM-1-mediated endocytosis. Co-localization of FITC 2γ3 carriers with Texas red dextran-labeled lysosomes was assessed by microscopy 3 h post-internalization. Mean±SEM; n=2 assays. **p<0.005, ***p<0.001, by student's t test.
# mouse endothelial cells = experiment: Endocytosis of peptide phages by mouse endothelial cells; format: cell-based; conditions: for Internalization of phage viruses by endothelial cells: phages expressing 5 copies of the peptide, 37° C., 1 h
# Description: (§2) (A) ELISA measurement of the binding of 7-mer peptide expressing phage library to immobilized recombinant ICAM-1 (consisting of the two most membrane-distal Ig domains—1 and 2—of mouse ICAM-1 fused to human Fc or hFc), versus their binding to control hFc. (B) Relative specificity and (C) relative affinity of ICAM-1-targeting peptide phages, determined by ELISA from the experiment in (A). (D) Relative binding of phages expressing 7-mer peptides to native ICAM-1 expressed on the surface of HV5 mouse endothelial cells, either control or activated with TNFalpha to mimic a disease phenotype. Binding was determined by microscopy using a fluorescently-labeled antibody to the phage capsid. The line in the graph indicates the level of binding of A1 phage to 293 cells, which are voided of ICAM-1-expression. (E, F) Endocytosis (1 h, 37° C.) of phages expressing 7-mer peptides by control mouse endothelial cells (E) or mouse endothelial cells incubated in the presence of 3 mM amiloride (F) was estimated by microscopy after staining surface-located phages with a Texas red-labeled antibody to the viral capsid, following by cell permeabilization and staining of all (surface and internalized) phages using a FITC-labeled antibody to the viral capsid. (G) Binding of FITC-labeled anti-ICAM polystyrene nanocarriers to human endothelial cells was evaluated by fluorescence microscopy after incubation with cells in the absence (100% level) or presence of anti-ICAM antibody, ICAM-1-targeting synthetic peptides, or peptides with their scramble sequence (e.g., A1sc).
# Caco-2 cells = experiment: Endocytosis of anti-ICAM carriers by Caco-2 cells; format: cell-based, human; conditions: TNF-α-treated Caco-2, 1 h, 37° C.
# Protocol: Furthermore the ability of anti-ICAM carriers to be endocytosed by Caco-2 cells was examined. FITC-labeled anti-ICAM carriers were first incubated with cells for 30 min to allow binding, then non-bound carriers were washed and cells were incubated for varying times to allow carrier uptake. After cell fixation, surface-bound carriers were stained with Texas Red secondary antibody. […] Data are shown as means±S.E.M. (n≧20). […] Internalization was highly efficient: approximately 90% of the carriers bound to cells were internalized, which represents ˜60 carriers per cell.
# The mechanism of uptake for Caco-2 cells treated with amiloride, a known inhibitor of CAM-mediated endocytosis (Muro et al., 2003), was examined. TNF-α-treated Caco-2 cells were incubated with FITC-labeled anti-ICAM carriers in the presence or absence of amiloride (1 h, 37° C.), and surface-bound carriers were stained with TxR goat anti-mouse. […] Upper panels of FIG. 14A show total carriers associated to cells, whereas lower panels show the fraction of surface-bound, non-internalized carriers. (Magnification bar=10 μm.) The fluorescence microscopy images were analyzed for the ratio of internalized carriers to surface-bound carriers, expressed as % internalization and normalized to the control. (FIG. 14B; Data are shown as means±S.E.M. (n≧20). *, p<0.001 by Student's t test.)
# Caco-2 monolayers = experiment: Transport of 125I-labelled carriers across Caco-2 monolayers on permeable inserts; format: in vitro ADME, human
# [1] = molecular target: T1, native ICAM-1 expressed by activated HUVEC (Homo sapiens, UniProt P05362); experiment: Binding of γ3/ASM carriers to activated HUVEC, with or without excess competitor; format: cell-based; conditions: 1 h, 37° C.
# T1 construct: endogenous in cells
# Protocol: as §1, with “Cells were then incubated for 30 min at 37° C. with FITC-labeled γ3/ASM carriers, non-bound carriers were washed, and incubation was continued up to 1, 2, or 3 h.” left out, “(D) Comparison of lysosomal transport of 100 nm FITC-labeled polystyrene carriers coated with either ICAM-1-targeting peptide γ3 vs its derivatives 2γ3 and 3γ3. (E) Activated HUVEC were incubated for 30 min at 37° C. in the presence of FITC-labeled 2γ3 polystyrene carriers after 15 min pre-treatment with 3 mM amiloride to block ICAM-1-mediated endocytosis, or 0.1 μM PMA to activate PKC and promote ICAM-1-mediated endocytosis.” left out, “Mean±SEM; n=2 assays. **p<0.005, ***p<0.001, by student's t test.” left out
# [2] = molecular target: T2, ICAM-1 on human endothelial cells (Homo sapiens, UniProt P05362); experiment: Competition of binding of anti-ICAM nanocarriers to human endothelial cells by synthetic peptides; format: cell-based
# T2 construct: endogenous in cells
# Description: as §2
# ICAM-1 on HUVEC = experiment: Leukocyte transmigration across TNF-activated HUVEC monolayer in transwell; format: cell-based, human; conditions: compared to albumin, scrambled peptide and LB2 controls
# Protocol: Human endothelial cells (human umbilical vein endothelial cells (HUVECs)) were grown until formation of a continuous confluent monolayer in a transwell filter located between upper and lower chambers. The cells were then treated with tumor necrosis factor alpha to mimic inflammatory activation of endothelial cells and SDF1a was added to the lower chamber to generate a gradient to attract white blood cells, as during inflammation. Lymphocytes isolated from human peripheral blood were activated with interleukin 2 and added to the upper chamber above endothelial cells in the absence (control) or presence of ICAM-1-targeting peptides A1, B7, B8, B9, B10, or D6. Albumin or a peptide of scrambled sequence were used as negative controls which should not block inflammatory transmigration of leukocytes across endothelial cells. The anti-ICAM antibody LB2, which is known to block leukocyte adhesion to ICAM-1, was used as a positive control which should block such transmigration.
# Leukocytes which transmigrated to the lower chamber below endothelial cells were counted to assess their transmigration. FIG. 9 provides a graph of the resulting leukocyte transmigration as a percentage of the control. The peptides annotated with an asterisk in FIG. 9 indicate that the peptide was effective in statistically significant blockage of leukocyte transmigration across endothelial cells.
# [3] = molecular target: T3, ICAM-1 in the vascular endothelium (Mus musculus, UniProt P13597); experiment: Lodging of fibrin microemboli in the vasculature of mice; format: in vivo
# T3 construct: from tissue
# Protocol: C57Bl/6 mice were first injected intravenously with γ3 to block ICAM-1 in the vascular endothelium in organs. Alternatively, injections of saline or anti-ICAM were used as controls. Fifteen minutes later the mice were injected with fibrin clots (microemboli around 3-5 micrometer) generated in the lab by established procedures.
# Following microemboli administration, the microemboli amounts were measured in a gamma counter and calculated as percent of injected dose in circulation or localization ratio (the percent injected dose/gram in an organ divided by percent injected dose/gram in blood). FIG. 10(A) is a graphical illustration of the amount of microemboli in circulation in blood, as evaluated at 1 min after injection and FIG. 10(B) is a graphical illustration of the amount of microemboli lodging in the vasculature of the kidneys and spleen at 15 min after injection.
# ICAM-1 = molecular target: T4, ICAM-1 (Mus musculus, UniProt P13597); experiment: Lung uptake (30 min) of radiolabeled ASM vs anti-ICAM carriers injected iv in mice; format: in vivo; conditions: 30 min after iv injection
# T4 construct: from tissue
# Protocol: (A) Lung uptake (30 min) of ^125I-labeled anti-transferrin receptor (targeted to the clathrin route), anti-GM1 (anti-ganglioside GM1, targeted to caveoli), or anti-ICAM, injected intravenously in mice as free antibodies or absorbed on the surface of 100 nm polystyrene particles (prototype carrier final size=180 nm). Particles had ^125I-labeled IgG as a tracer. Dashed line=control unspecific IgG carriers. (B) Lung uptake (30 min) of radiolabeled acid sphingomyelinase, a recombinant enzyme which binds to mannose 6 phosphate (M6P) receptor, vs anti-ICAM polystyrene carriers in control C57Bl/6 mice vs diseased ASMKO mice. Data is normalized per gram due to larger lung size in ASMKO mice. […] […]. […] (E) FITC-labeled anti-ICAM carriers of diverse geometry (anti-ICAM polystyrene spheres from 0.1 to 5 μm or 0.1×1×3 μm elliptical disks, and polymorphous anti-ICAM conjugates formed by biotin-streptavidin crosslinking were incubated with TNFα activated human umbilical vein endothelial cells (HUVEC) for 1 h at 37° C. The cells were then washed and fixed, cell surface-located carriers were differentially stained with a texas red-conjugated secondary antibody, and the samples were analyzed by fluorescence microscopy to quantify the percent of carriers internalized by the cells. Data are mean±standard error of the mean for n≧4 mice or ≧20 cells. *p<0.05, **p<0.005, ***p<0.001 by student's t test.
# T2 sequence (P05362 28-532): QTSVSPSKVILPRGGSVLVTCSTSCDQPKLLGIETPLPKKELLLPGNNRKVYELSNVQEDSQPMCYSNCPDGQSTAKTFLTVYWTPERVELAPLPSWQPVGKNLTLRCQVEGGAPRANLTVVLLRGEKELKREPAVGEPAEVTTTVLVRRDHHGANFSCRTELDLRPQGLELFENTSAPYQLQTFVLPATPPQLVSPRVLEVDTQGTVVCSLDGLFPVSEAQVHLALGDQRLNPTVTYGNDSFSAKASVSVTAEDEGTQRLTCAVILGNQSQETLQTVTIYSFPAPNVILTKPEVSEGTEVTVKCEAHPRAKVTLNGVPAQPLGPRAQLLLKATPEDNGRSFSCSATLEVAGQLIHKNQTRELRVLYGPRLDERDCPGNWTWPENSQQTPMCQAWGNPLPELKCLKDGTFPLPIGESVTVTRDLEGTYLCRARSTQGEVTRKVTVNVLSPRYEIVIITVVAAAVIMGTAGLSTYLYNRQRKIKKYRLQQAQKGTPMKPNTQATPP
# T1 sequence (P05362 28-532): as above
# T3 sequence (P13597 28-537): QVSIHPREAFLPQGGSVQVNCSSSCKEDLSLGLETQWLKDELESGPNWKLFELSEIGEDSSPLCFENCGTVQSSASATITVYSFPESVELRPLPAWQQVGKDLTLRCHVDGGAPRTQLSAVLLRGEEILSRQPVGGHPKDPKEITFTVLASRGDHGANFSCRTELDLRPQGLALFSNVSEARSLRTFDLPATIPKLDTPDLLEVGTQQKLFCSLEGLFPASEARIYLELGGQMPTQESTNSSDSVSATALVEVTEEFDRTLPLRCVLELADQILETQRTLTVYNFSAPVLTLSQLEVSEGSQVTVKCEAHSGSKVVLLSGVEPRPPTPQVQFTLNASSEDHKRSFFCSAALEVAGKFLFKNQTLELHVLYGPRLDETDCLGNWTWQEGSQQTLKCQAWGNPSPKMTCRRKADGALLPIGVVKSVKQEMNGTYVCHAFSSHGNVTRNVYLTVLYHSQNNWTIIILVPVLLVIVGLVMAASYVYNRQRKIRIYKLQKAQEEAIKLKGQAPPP
# T4 sequence (P13597 28-537): as above
molecule,measurement,setting,value
"N=C(N)NC(=O)c1nc(Cl)c(N)nc1N [amiloride, reference compound]",Effect of modulator on endocytic transport of peptide carriers,HUVEC; 3 mM amiloride or 0.1 μM PMA pre-treatment,inhibited
same,inhibition at 3000 µM,"mouse endothelial cells; Mus musculus, Endothelial cell, phages A1, B7, B9, D6, 3 mM amiloride, read-out: Inhibition of phage internalization by amiloride",41 to 59%
same,Uptake of anti-ICAM carriers in presence of amiloride,Caco-2 cells,20 % of the control value
same,Reduction of transport of 125I-anti-ICAM carriers by amiloride,Caco-2 monolayers; 3 h,about 50%
"O=C[C@@H](O)[C@@H](O)[C@H](O)[C@H](O)COP(=O)(O)O [mannose-6-phosphate, reference compound]",Effect of excess free competitor in the media on targeting of γ3/ASM carriers to endothelial cells,[1],did not compete
FSPHSRT (phage display-derived peptide B9) [also tested as phage clone],Inhibition of binding of anti-ICAM nanocarriers to human endothelial cells,[2],~80 % inhibition
same,Leukocyte transmigration across endothelial cells,ICAM-1 on HUVEC,inhibit leukocyte transmigration
GCKLCAQ (phage display-derived peptide D6) [also tested as phage clone],Leukocyte transmigration across endothelial cells,ICAM-1 on HUVEC,inhibit leukocyte transmigration
"GSLLSAA [B8, GSLLSAA]",Internalization of phage viruses by endothelial cells,mouse endothelial cells,not
same,Inhibition of binding of anti-ICAM nanocarriers to human endothelial cells,[2],at some extent
same,Leukocyte transmigration across endothelial cells,ICAM-1 on HUVEC,inhibit leukocyte transmigration
NNQKIVNIKEKVAQIEA (fibrinogen-derived 2-gamma-3) [2γ3],"Binding, internalization and lysosomal transport of carriers",HUVEC,similar
NNQKIVNLKEKVAQLEA (fibrinogen-derived gamma-3) [γ3],Effect of excess free competitor in the media on targeting of γ3/ASM carriers to endothelial cells,[1],suppressed
same,Fibrin microemboli in circulation,[3]; 1 min after microemboli injection,remain in circulation
same,Microemboli lodging in organs,"[3]; kidneys and spleen, 15 min after injection",attenuating microemboli lodging in organs
NNQKLVNIKEKVAQIEA (fibrinogen-derived 3-gamma-3) [3γ3],"Binding, internalization and lysosomal transport of carriers",HUVEC,similar
YPFLPTA (phage display-derived peptide B10) [also tested as phage clone],Internalization of phage viruses by endothelial cells,mouse endothelial cells,not
same,Leukocyte transmigration across endothelial cells,ICAM-1 on HUVEC,inhibit leukocyte transmigration
YQATPLP (phage display-derived peptide B7) [also tested as phage clone],Leukocyte transmigration across endothelial cells,ICAM-1 on HUVEC,inhibit leukocyte transmigration
"^125I-albumin: radiolabelled bovine serum albumin, standard for passive transport",Papp A→B,Caco-2 monolayers; Caco-2,0.03 ± 20000 ×10⁻⁶ cm/s
B1,"Lung accumulation, fold lower than ICAM-1 targeting",ICAM-1,10 fold
